Experimental data as given in the supplement of paper PMC10331698.
± gives the standard deviation of the averaged measurements.

Columns and labels:
Assay in all cases: level (log10 ratio to DMSO vehicle control); higher = higher biomarker level / cell amount than vehicle control
[1] = compound: COC(=O)CCC(F)(F)C(F)(F)C(F)(F)C(F)(F)F [Methyl 2H,2H,3H,3H-perfluoroheptanoate]; details: in DMSO
Protocol: (§1)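 BioMAP Diversity Plus panel of 12 human primary cell co-culture systems (3C, 4H, LPS, SAg, BT, BF4T, BE3C, CASM3C, HDF3CGF, KF3CT, MyoF, Mphg). Compounds were added 1 h before stimulation and left for 24 h (MyoF 48 h; BT 72 h for soluble read-outs or 6 d for IgG). Biomarkers were read by ELISA, cytotoxicity by SRB, PBMC viability and proliferation by Alamar Blue. Each well value was divided by the mean of 8 DMSO control wells on the same plate and log10 transformed; duplicate blinded samples were tested at 4 concentrations.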

[2] = compound: FC(F)C(F)(F)COCC1CO1 [((2,2,3,3-Tetrafluoropropoxy)methyl)oxirane]; details: in DMSO
Protocol: as §1

[3] = compound: NCC(F)(F)C(F)(F)C(F)(F)C(F)(F)C(F)(F)C(F)(F)C(F)(F)F [1H,1H-Perfluorooctylamine]; details: in DMSO
Protocol: as §1

Perfluorodecanoic acid = compound: O=C(O)C(F)(F)C(F)(F)C(F)(F)C(F)(F)C(F)(F)C(F)(F)C(F)(F)C(F)(F)C(F)(F)F [Perfluorodecanoic acid]; details: in DMSO
Protocol: as §1

Perfluorobutanoic acid = compound: O=C(O)C(F)(F)C(F)(F)C(F)(F)F [Perfluorobutanoic acid]; details: in DMSO
Protocol: as §1

[4] = compound: OCCC(F)(F)C(F)(F)C(F)(F)C(F)(F)C(F)(F)C(F)(F)F [6:2 Fluorotelomer alcohol]; details: in DMSO
Protocol: as §1

[5] = compound: OCCCC(F)(F)C(F)(F)C(F)(F)C(F)(F)C(F)(F)C(F)(F)C(F)(F)F [7:3 Fluorotelomer alcohol]; details: 6700 nM; in DMSO
Protocol: as §1

| Test System | level (log10) ([1]; 6700 nM) | level (log10) ([1]; 20000 nM) | level (log10) ([1]; 60000 nM) | level (log10) ([2]; 6700 nM) | level (log10) ([2]; 20000 nM) | level (log10) ([2]; 60000 nM) | level (log10) ([3]; 6700 nM) | level (log10) ([3]; 20000 nM) | level (log10) ([3]; 60000 nM) | level (log10) (Perfluorodecanoic acid; 6700 nM) | level (log10) (Perfluorodecanoic acid; 20000 nM) | level (log10) (Perfluorobutanoic acid; 6700 nM) | level (log10) (Perfluorobutanoic acid; 20000 nM) | level (log10) (Perfluorobutanoic acid; 60000 nM) | level (log10) ([4]; 6700 nM) | level (log10) ([4]; 20000 nM) | level (log10) [5] |
| --- | --- | --- | --- | --- | --- | --- | --- | --- | --- | --- | --- | --- | --- | --- | --- | --- | --- |
| CASM3C:CD142/Tissue Factor | -0.021 ± 0.027 | 0.001 ± 0.013 | 0.015 ± 0.017 | 0.0075 ± 0.013 | -0.0005 ± 0.037 | 0.0385 ± 0.083 | -0.018 ± 0.0014 | -0.0135 ± 0.015 | 0.021 ± 0.03 | 0.008 ± 0.0042 | -0.0055 ± 0.012 | -0.002 | 0.007 ± 0.0099 | -0.0505 ± 0.00071 | 0.004 ± 0.014 | 0.0075 ± 0.0064 | -0.011 ± 0.016 |
| HDF3CGF:M-CSF | -0.0125 ± 0.0064 | -0.008 ± 0.013 | 0.002 ± 0.011 | 0.009 | -0.001 ± 0.033 | -0.001 ± 0.013 | -0.0255 ± 0.0064 | -0.031 ± 0.061 | -0.027 ± 0.069 | 0.023 ± 0.0057 | -0.275 ± 0.018 | 0.0025 ± 0.012 | 0.0055 ± 0.005 | 0.0035 ± 0.00071 | -0.009 ± 0.0099 | -0.0075 ± 0.0021 | 0.0035 ± 0.044 |
| HDF3CGF:CXCL10/IP-10 | -0.011 ± 0.0085 | 0.006 ± 0.016 | -0.026 ± 0.0071 | -0.0085 ± 0.032 | -0.033 ± 0.0057 | -0.0175 ± 0.023 | 0.0115 ± 0.03 | -0.006 ± 0.011 | -0.0005 ± 0.00071 | -0.0745 ± 0.015 | -0.427 ± 0.019 | -0.002 ± 0.0057 | 0.0035 ± 0.005 | -0.0025 ± 0.013 | -0.009 ± 0.0099 | -0.0295 ± 0.0092 | -0.047 ± 0.03 |
| MyoF:Collagen III | -0.0085 ± 0.0092 | -0.007 ± 0.0014 | -0.015 ± 0.0057 | -0.0045 ± 0.0035 | -0.0105 ± 0.005 | -0.005 | -0.007 ± 0.0057 | 0.003 ± 0.014 | 0.01 | -0.028 ± 0.03 | -0.36 ± 0.066 | -0.0155 ± 0.016 | 0.0025 ± 0.011 | -0.0145 ± 0.025 | 0.003 ± 0.016 | -0.005 ± 0.0014 | -0.0035 ± 0.012 |
| CASM3C:LDLR | 0.016 ± 0.0099 | 0.0095 ± 0.005 | 0.033 ± 0.028 | -0.0165 ± 0.021 | -0.02 ± 0.0042 | 0.007 ± 0.024 | -0.0295 ± 0.005 | -0.018 ± 0.023 | 0.007 ± 0.0042 | -0.0045 ± 0.0078 | 0.0105 ± 0.03 | -0.013 ± 0.028 | -0.018 ± 0.02 | 0.0095 ± 0.015 | 0.031 ± 0.011 | 0.023 ± 0.0028 | 0.012 ± 0.0028 |
| HDF3CGF:CD106/VCAM-1 | -0.0395 ± 0.033 | -0.0135 ± 0.053 | -0.0235 ± 0.066 | -0.001 ± 0.016 | -0.0075 ± 0.023 | -0.0295 ± 0.037 | -0.0015 ± 0.0078 | -0.0445 ± 0.074 | -0.08 ± 0.095 | -0.0085 ± 0.026 | -0.623 ± 0.057 | -0.008 ± 0.0014 | 0.0295 ± 0.026 | -0.0085 ± 0.015 | -0.0175 ± 0.063 | -0.0145 ± 0.042 | -0.0795 ± 0.005 |
| CASM3C:Proliferation | -0.001 ± 0.0028 | -0.038 ± 0.0042 | 0.0025 ± 0.0035 | -0.0215 ± 0.011 | -0.001 ± 0.014 | 0.0145 ± 0.032 | 0.0025 ± 0.012 | 0.005 ± 0.016 | -0.0095 ± 0.0092 | 0.049 ± 0.0028 | 0.0205 ± 0.035 | 0.01 ± 0.0099 | -0.0015 ± 0.025 | -0.007 ± 0.017 | -0.004 ± 0.021 | -0.0205 ± 0.023 | 0.052 ± 0.0057 |
| lMphg:CCL3/MIP-1alpha | -0.0315 ± 0.005 | -0.013 ± 0.0028 | -0.004 ± 0.045 | -0.027 ± 0.059 | -0.0385 ± 0.084 | -0.0025 ± 0.026 | 0 ± 0.0099 | -0.0215 ± 0.016 | 0.0035 ± 0.044 | 0.004 ± 0.013 | -0.0125 ± 0.049 | -0.0075 ± 0.00071 | -0.0115 ± 0.018 | 0.0355 ± 0.047 | -0.0295 ± 0.0064 | -0.0295 ± 0.021 | -0.0155 ± 0.019 |
| lMphg:M-CSF | -0.0325 ± 0.0078 | -0.0275 ± 0.005 | 0.0075 ± 0.022 | -0.0155 ± 0.013 | 0 ± 0.024 | -0.0265 ± 0.015 | -0.024 ± 0.033 | -0.0185 ± 0.005 | -0.0245 ± 0.0021 | 0.019 ± 0.021 | 0.0105 ± 0.037 | -0.023 ± 0.024 | -0.0005 ± 0.011 | 0.024 ± 0.031 | -0.0245 ± 0.0021 | -0.0245 ± 0.013 | -0.0205 ± 0.037 |
| KF3CT:CD54/ICAM-1 | 0.005 ± 0.0028 | 0.021 ± 0.024 | -0.01 ± 0.04 | -0.0065 ± 0.015 | -0.012 ± 0.0085 | -0.014 ± 0.016 | 0 | 0.0015 ± 0.005 | 0.011 ± 0.0057 | 0.0095 ± 0.013 | -0.003 ± 0.0028 | -0.005 ± 0.0028 | 0.008 ± 0.0071 | 0.016 ± 0.016 | 0.011 ± 0.0057 | 0.0155 ± 0.0021 | -0.022 ± 0.0071 |
| KF3CT:MMP-9 | -0.012 ± 0.047 | -0.0145 ± 0.035 | -0.024 ± 0.017 | 0.0085 ± 0.0064 | -0.005 ± 0.011 | 0.012 ± 0.011 | 0.0085 ± 0.0092 | 0.0025 ± 0.0035 | 0.0065 ± 0.005 | -0.103 ± 0.037 | -0.308 ± 0.0028 | -0.01 ± 0.021 | -0.0185 ± 0.019 | 0.0005 ± 0.013 | -0.007 ± 0.035 | -0.0045 ± 0.015 | -0.019 ± 0.018 |
| HDF3CGF:CD54/ICAM-1 | -0.0095 ± 0.0092 | 0.012 ± 0.0028 | -0.0025 ± 0.028 | 0.001 ± 0.013 | 0.006 ± 0.0014 | -0.007 ± 0.018 | -0.003 ± 0.013 | -0.0055 ± 0.011 | -0.0095 ± 0.0078 | -0.0485 ± 0.0092 | -0.071 | -0.005 ± 0.016 | 0.0035 ± 0.00071 | 0.001 ± 0.0057 | -0.01 ± 0.0071 | -0.0075 ± 0.0064 | -0.024 ± 0.0085 |
